Like-named read-outs stand apart in the source and are kept apart here. Values belong to the compound of their own block, whether it stands above or below them.
Experiments:
MV4;11 cell line = assay: Cell growth assay (WST-8) in MV4;11; assay type: cell-based; conditions: for IC50: MV4;11, 4 days, read-out: IC50, cell growth inhibition
Protocol: (§1) Cell viability was evaluated with a WST-8 assay (Dojindo) following the manufacturer’s instructions. Briefly, cells were seeded in 96-well cell culture plates at a density of 10,000-20,000 cells/well in 200 µL for MV4;11 cell line or 2,000-3,000 for KYSE-520 cell line of culture medium containing serial dilution of testing compounds. After 4 days of treatment, cell growth was measured by a lactate dehydrogenase-based WST-8 assay (Dojindo Molecular Technologies) using a Tecan Infinite M-1000 multimode microplate reader (Tecan US, Morrisville, NC). The WST-8 reagent was added to each well, and cells were incubated for an additional 1-2 h and read at 450 nm. The readings were normalized to the vehicle-treated cells, and the IC50 was calculated by nonlinear regression analysis using the GraphPad Prism 6 software.
(§2) Briefly, Cells were treated with indicated doses for 4 days and cell viability was determined by a colorimetric WST-8 assay.

KYSE520 cell line = assay: Cell growth assay (WST-8) in KYSE520; assay type: cell-based; conditions: for IC50: KYSE520, 4 days, read-out: IC50, cell growth inhibition
Protocol: as §1, §2

SHP2 [1] = biological target: T1, SHP2 (Homo sapiens, UniProt Q06124); assay: SHP2 allosteric inhibition assay; assay type: biochemical; conditions: 0.5 nM SHP2, 0.5 µM bisphosphorylated IRS1 peptide, DiFMUP substrate
T1 sequence (Q06124 1-593): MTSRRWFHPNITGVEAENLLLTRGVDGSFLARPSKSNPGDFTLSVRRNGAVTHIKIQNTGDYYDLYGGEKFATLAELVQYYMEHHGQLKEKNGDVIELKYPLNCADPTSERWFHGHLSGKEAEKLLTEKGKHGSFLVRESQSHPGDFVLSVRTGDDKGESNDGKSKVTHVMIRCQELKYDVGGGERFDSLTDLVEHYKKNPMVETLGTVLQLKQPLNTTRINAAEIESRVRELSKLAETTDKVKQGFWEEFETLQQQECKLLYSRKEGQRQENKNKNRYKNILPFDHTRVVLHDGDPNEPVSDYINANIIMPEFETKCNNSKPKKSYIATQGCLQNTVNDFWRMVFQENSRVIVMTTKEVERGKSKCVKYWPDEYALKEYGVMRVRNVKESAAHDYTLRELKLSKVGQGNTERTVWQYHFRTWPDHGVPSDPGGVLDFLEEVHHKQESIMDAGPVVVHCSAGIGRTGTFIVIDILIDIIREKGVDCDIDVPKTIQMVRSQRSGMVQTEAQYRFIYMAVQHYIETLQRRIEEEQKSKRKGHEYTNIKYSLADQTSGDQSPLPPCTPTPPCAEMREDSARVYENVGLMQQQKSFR
Protocol: Assay buffer conditions: 60 mM HEPES, pH 7.2, 75 mM NaCl, 75 mM KCl, 0.05% P-20, 5 mM DTT,1 mM EDTA. 0.5 nM of SHP2 was incubated with 0.5 µM of bisphosphorylated IRS1 peptide and 100 µM (top concentration 3X dilution) of the inhibitory compounds. After incubation 60 min at RT, 5 µl 200 µM substrate DiFMUP (Invitrogen) was added and incubated another 30 min at RT. […] The fluorescence signal was detected by CLARIOstar (BMG tech), excitation wavelength was 340 nm and emission wavelength was 450 nm. The inhibitor dose-response curves were analyzed by Graphpad Prism 8.

SHP2 [2] = biological target: T1, SHP2; assay: SHP2 degradation by Western blot in KYSE520 cells
Protocol: (§5) Western blotting and quantification were performed with regular western blot method and band quantification was performed using ImageJ. Treated cells were lysed by RIPA buffer supplemented with protease and phosphatase inhibitors. […] The net protein bands and loading controls are calculated by deducting the background from the inverted band value. The final relative quantification values are the ratio of the net band to net loading control.
(§6) The treated cells were harvested and the level of SHP2 protein was examined by blot analysis. GAPDH was used as a loading control.
(§7) SHP2 protein was examined by Western blotting and the protein level was quantified by densitometry and normalized to the corresponding density of the GAPDH protein. […] Cells were treated with 100 nM of SHP2-D26 for different times. SHP2 protein was examined by Western blotting and the GAPDH protein was used as the loading control.

SHP2 [3] = biological target: T1, SHP2; assay: SHP2 degradation by Western blot in MV4;11 cells; conditions: for % of SHP2 protein degradation in MV4;11 cell line: 0.1 µM
Protocol: as §5, §6, §7

phosphorylation of ERK [4] = assay: Inhibition of ERK phosphorylation (Western blot) in MV4;11 cells; assay type: cell-based; conditions: for concentration for complete inhibition of pERK: MV4;11, 48 h
Protocol: (§3) Western blotting and quantification were performed with regular western blot method and band quantification was performed using ImageJ. Treated cells were lysed by RIPA buffer supplemented with protease and phosphatase inhibitors. The cell lysates were separated by 4-12% SDS-PAGE gels and blotted into PVDF (polyvinylidene difluoride) membranes. The net protein bands and loading controls are calculated by deducting the background from the inverted band value. The final relative quantification values are the ratio of the net band to net loading control.
(§4) GAPDH was used as a loading control. (FIG. 3A and FIG. 3B).

phosphorylation of ERK [5] = assay: Inhibition of ERK phosphorylation (Western blot) in KYSE520 cells; assay type: cell-based; conditions: for concentration effective in reducing the level of pERK: KYSE520, 48 h
Protocol: as §3, §4

IC50 (MV4;11 cell line; Homo sapiens, 96 h): 6.6 µM | IC50 (SHP2 [1]): 0.0987 µM
SMILES: CC(=O)Nc1cccc(Sc2ncc(N3CCC(C)(N)CC3)nc2N)c1Cl [Compound 5, N-(3-((3-amino-5-(4-amino-4-methylpiperidin-l-yl)pyrazin-2-yl)t′hio)-2-chlorophenyl)acetamide]
IC50 (KYSE520 cell line; Homo sapiens, KYSE-520, 96 h): 39.4 µM

% of SHP2 protein degradation in KYSE520 cell line (SHP2 [2]; 0.1 µM): >95% | % of SHP2 protein degradation in KYSE520 cell line (SHP2 [2]; 1 µM): >95% | % of SHP2 protein degradation in MV4;11 cell line (SHP2 [3]): 90%
SMILES: Cc1ncsc1-c1ccc([C@@H](C)NC(=O)[C@H]2C[C@H](O)CN2C(=O)[C@H](NC(=O)CCCCCCCOc2ccc(NC(=O)CCC(=O)Nc3cccc(Sc4ncc(N5CCC(C)(N)CC5)nc4N)c3Cl)cc2)C(C)(C)C)cc1 [Compound 28]

IC50 (MV4;11 cell line; Homo sapiens, 96 h): 0.0099 µM | % of SHP2 protein degradation in KYSE520 cell line (SHP2 [2]; 0.1 µM): >95% | % of SHP2 protein degradation in KYSE520 cell line (SHP2 [2]; 1 µM): >95% | time to reduce the SHP2 protein level (SHP2 [2]; KYSE520, 100 nM): ≤ 4 h | treatment time for essentially complete SHP2 depletion (SHP2 [2]; KYSE520, 100 nM): 8 h | DC50 (SHP2 [2]; read-out: DC50 (concentration needed to induced targeted protein degradation by 50%), KYSE520, 12 h): 0.006 µM | % of SHP2 protein degradation in MV4;11 cell line (SHP2 [3]): >95% | DC50 (SHP2 [3]; read-out: DC50 (concentration needed to induced targeted protein degradation by 50%), MV4;11, 12 h): 0.0026 µM
SMILES: Cc1ncsc1-c1ccc([C@@H](C)NC(=O)[C@H]2C[C@H](O)CN2C(=O)[C@H](NC(=O)CCCCCCCCN2CCN(C(=O)CCC(=O)Nc3cccc(Sc4ncc(N5CCC(C)(N)CC5)nc4N)c3Cl)CC2)C(C)(C)C)cc1 [Compound 26]
times more potent than SHP099 in cell growth inhibition (MV4;11 cell line; MV4;11): 100 times | times more potent than compound 4 in cell growth inhibition (MV4;11 cell line; MV4;11): > 400 times | times more potent than compound 5 in cell growth inhibition (MV4;11 cell line; MV4;11): > 600 times | times more potent than SHP099 in inhibition of pERK (phosphorylation of ERK [4]; MV4;11): > 30 times | concentration for complete inhibition of pERK (phosphorylation of ERK [4]): 100 nM | IC50 (KYSE520 cell line; Homo sapiens, KYSE-520, 96 h): 0.66 µM | times more potent than SHP099 in inhibiting cell growth (KYSE520 cell line; KYSE520): 28 times | times more potent than compound 4 in inhibiting cell growth (KYSE520 cell line; KYSE520): 64 times | times more potent than compound 5 in inhibiting cell growth (KYSE520 cell line; KYSE520): 60 times | times more potent than SHP099 in inhibition of pERK (phosphorylation of ERK [5]; KYSE520): > 30 times | concentration effective in reducing the level of pERK (phosphorylation of ERK [5]): 100 nM

IC50 (MV4;11 cell line): 1 µM
SMILES: CC1(N)CCN(c2cnc(-c3cccc(Cl)c3Cl)c(N)n2)CC1 [SHP099, reference compound]
concentration for complete inhibition of pERK (phosphorylation of ERK [4]): > 3,000 nM | IC50 (KYSE520 cell line): 18.2 µM | concentration effective in reducing the level of pERK (phosphorylation of ERK [5]): > 3,000 nM
